Reference: patent US20120270929A1, “MODULATION OF TTC39 EXPRESSION TO INCREASE HDL” (ISIS Pharmaceuticals, Inc., priority 2009, published 2012)
Oligonucleotides are written 5' to 3', each unit as a sugar letter and its base; * is a phosphorothioate linkage, no mark a phosphodiester; rarer units and linkages stand in square brackets, end groups in braces. Plain capitals give the bases only. e = 2'-O-(2-methoxyethyl) (MOE); [5mC] = 5-methylcytosine; d = 2'-deoxy (DNA)

Columns and labels:
murine TTC39A mRNA [1] = assay: Dose-dependent antisense inhibition of murine TTC39A in b.END cells; format: cell-based, mouse; details: ~16 h; for IC50: cytofectin
Description: Cells were plated at a density of 3,500 cells per well and transfected using cytofectin reagent with 4.375 nM, 8.75 nM, 17.5 nM, 35 nM, 70 nM, and 140 nM concentrations of antisense oligonucleotide, as specified in Table 28. After a treatment period of approximately 16 hours, RNA was isolated from the cells and TTC39A mRNA levels were measured by quantitative real-time PCR. Murine primer probe set RTS3262 was used to measure mRNA levels. TTC39A mRNA levels were adjusted according to total RNA content, as measured by RIBOGREEN®. Results are presented as percent inhibition of TTC39A, relative to untreated control cells.

murine TTC39A mRNA [2] = assay: Antisense inhibition of mouse TTC39A in b.END cells, single dose; format: cell-based; details: 70 nM, cytofectin, ~24 h, vs untreated control
Description: Antisense oligonucleotides were designed targeting a TTC39A nucleic acid and were tested for their effects on TTC39A mRNA in vitro. Cultured b.END cells at a density of 4,000 cells per well were transfected using cytofectin reagent with 70 nM antisense oligonucleotide. After a treatment period of approximately 24 hours, RNA was isolated from the cells and TTC39A mRNA levels were measured by quantitative real-time PCR. Mouse primer probe set RTS3262 (forward sequence TGTGCGTCATGCTGTTGCT, designated herein as SEQ ID NO: 113; reverse sequence […], designated herein as SEQ ID NO: 114; probe sequence […], designated herein as SEQ ID NO: 115). TTC39A mRNA levels were adjusted according to total RNA content, as measured by RIBOGREEN®. Results are presented as percent inhibition of TTC39A, relative to untreated control cells.
The chimeric antisense oligonucleotides targeting TTC39A were designed as 5-10-5 MOE gapmers. The gapmers are 20 nucleotides in length, wherein the central gap segment is comprised of ten 2′-deoxynucleotides and is flanked on both sides (in the 5′ and 3′ directions) by wings comprising five nucleotides each. Each nucleotide in the 5′ wing segment and each nucleotide in the 3′ wing segment has a 2′-MOE modification. The internucleoside linkages throughout each gapmer are phosphorothioate (P═S) linkages. All cytosine residues throughout each gapmer are 5-methylcytosines. “Mouse Target start site” indicates the 5′-most nucleotide to which the gapmer is targeted in a mouse nucleic acid sequence.

murine TTC39C mRNA [3] = assay: Antisense inhibition of mouse TTC39C in mouse primary hepatocytes, single dose; format: cell-based; details: 8,000 nM antisense oligonucleotide, electroporation, approximately 24 hours, TTC39C mRNA by real-time PCR (RTS3266), relative to untreated control cells
Description: Antisense oligonucleotides were designed targeting a TTC39C nucleic acid and were tested for their effects on TTC39C mRNA in vitro. Cultured mouse primary hepatocytes at a density of 30,000 cells per well were transfected by electroporation with 8,000 nM antisense oligonucleotide. After a treatment period of approximately 24 hours, RNA was isolated from the cells and TTC39C mRNA levels were measured by quantitative real-time PCR. Mouse primer probe set RTS3266 (forward sequence […], designated herein as SEQ ID NO: 140; reverse sequence […], designated herein as SEQ ID NO: 141; probe sequence […], designated herein as SEQ ID NO: 142). TTC39C mRNA levels were adjusted according to total RNA content, as measured by RIBOGREEN®. Results are presented as percent inhibition of TTC39C, relative to untreated control cells.
The chimeric antisense oligonucleotides targeting TTC39C were designed as 5-10-5 MOE gapmers. The gapmers are 20 nucleotides in length, wherein the central gap segment is comprised of ten 2′-deoxynucleotides and is flanked on both sides (in the 5′ and 3′ directions) by wings comprising five nucleotides each. Each nucleotide in the 5′ wing segment and each nucleotide in the 3′ wing segment has a 2′-MOE modification. The internucleoside linkages throughout each gapmer are phosphorothioate (P═S) linkages. All cytosine residues throughout each gapmer are 5-methylcytosines. “Mouse Target start site” indicates the 5′-most nucleotide to which the gapmer is targeted in the mouse gene sequence.

murine TTC39C mRNA [4] = assay: Dose-dependent antisense inhibition of murine TTC39C in mouse primary hepatocytes; format: cell-based; details: electroporation, ~16 h; for IC50: mouse primary hepatocytes
How it was run: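 Mouse primary hepatocytes (30,000/well) electroporated with antisense oligonucleotide at 500, 1,000, 2,000, 4,000 or 8,000 nM and harvested after about 16 h. TTC39C mRNA quantified by RT-qPCR (primer probe set RTS3266), normalised to RIBOGREEN total RNA; percent inhibition versus untreated cells.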

murine TTC39B mRNA [5] = assay: Antisense inhibition of murine TTC39B in mouse primary hepatocytes, single dose; format: cell-based; details: 100 nM, cytofectin, ~24 h, vs untreated control; gapmers targeted to SEQ ID NO: 10-14
How it was run: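 Mouse primary hepatocytes transfected by cytofectin with 100 nM 5-10-5 MOE gapmer (20-mer, phosphorothioate, 5-methylcytosine) for ~24 h. TTC39B mRNA quantified by real-time qPCR, normalized to RIBOGREEN total RNA. Values given as percent inhibition versus untreated cells.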

murine TTC39B mRNA [6] = assay: Dose-dependent antisense inhibition of murine TTC39B in mouse primary hepatocytes (Example 2); format: cell-based; details: cytofectin, ~16 h
Description: Cells were plated at a density of 10,000 cells per well and transfected using cytofectin reagent with 25 nM, 50 nM, 100 nM, and 200 nM concentrations of antisense oligonucleotide, as specified in Table 3. After a treatment period of approximately 16 hours, RNA was isolated from the cells and TTC39B mRNA levels were measured by quantitative real-time PCR. Murine primer probe set mTtc39b_LTS00287 (forward sequence: […], incorporated herein as SEQ ID NO: 94; reverse sequence: […], incorporated herein as SEQ ID NO: 95; probe sequence: […], incorporated herein as SEQ ID NO: 96) was used to measure mRNA levels. TTC39B mRNA levels were adjusted according to total RNA content, as measured by RIBOGREEN®. Results are presented as percent inhibition of TTC39B, relative to untreated control cells.

murine TTC39B mRNA [7] = assay: Dose-dependent antisense inhibition of murine TTC39B in mouse primary hepatocytes (Example 3); format: cell-based; details: cytofectin, ~16 h
Description: Cells were plated at a density of 10,000 cells per well and transfected using cytofectin reagent with 6.25 nM, 12.5 nM, 25 nM, 50 nM, 100 nM, and 200 nM concentrations of antisense oligonucleotide, as specified in Table 4. After a treatment period of approximately 16 hours, RNA was isolated from the cells and TTC39B mRNA levels were measured by quantitative real-time PCR. Murine primer probe set mTtc39b_LTS00287 was used to measure mRNA levels. TTC39B mRNA levels were adjusted according to total RNA content, as measured by RIBOGREEN®. Results are presented as percent inhibition of TTC39B, relative to untreated control cells.

Row | Substance | percent inhibition of TTC39A mRNA (murine TTC39A mRNA [1]; 4.375 nM) [%] | percent inhibition of TTC39A mRNA (murine TTC39A mRNA [1]; 8.75 nM) [%] | percent inhibition of TTC39A mRNA (murine TTC39A mRNA [1]; 17.5 nM) [%] | percent inhibition of TTC39A mRNA (murine TTC39A mRNA [1]; 35.0 nM) [%] | percent inhibition of TTC39A mRNA (murine TTC39A mRNA [1]; 70.0 nM) [%] | percent inhibition of TTC39A mRNA (murine TTC39A mRNA [1]; 140.0 nM) [%] | IC50 (murine TTC39A mRNA [1]) [nM] | % inhibition of murine TTC39A mRNA (murine TTC39A mRNA [2]) [%] | also measured
1 | AGTTGGGACCCAGAAGGCCT (eA*eG*eT*eT*eG*dG*dG*dA*d[5mC]*d[5mC]*d[5mC]*dA*dG*dA*dA*eG*eG*e[5mC]*e[5mC]*eT; antisense) [ISIS 474497] | 8 | 5 | 21 | 29 | 53 | 77 | 72 | 94 | 
2 | CACCTGGGTTTGAGGTAGCT (e[5mC]*eA*e[5mC]*e[5mC]*eT*dG*dG*dG*dT*dT*dT*dG*dA*dG*dG*eT*eA*eG*e[5mC]*eT; antisense) [ISIS 474498] | 0 | 6 | 33 | 55 | 64 | 80 | 35 | 95 | 
3 | CCGCACTTTGATGCCGCCCT (e[5mC]*e[5mC]*eG*e[5mC]*eA*d[5mC]*dT*dT*dT*dG*dA*dT*dG*d[5mC]*d[5mC]*eG*e[5mC]*e[5mC]*e[5mC]*eT; antisense) [ISIS 474435] | 0 | 2 | 11 | 8 | 52 | 76 | 67 | 94 | 
4 | CGCCTGGACTTCCGGATAGC (e[5mC]*eG*e[5mC]*e[5mC]*eT*dG*dG*dA*d[5mC]*dT*dT*d[5mC]*d[5mC]*dG*dG*eA*eT*eA*eG*e[5mC]; antisense) [ISIS 474369] | 0 | 14 | 22 | 48 | 62 | 82 | 44 | 96 | 
5 | GCATGTAGAGAACTTCCAGG (eG*e[5mC]*eA*eT*eG*dT*dA*dG*dA*dG*dA*dA*d[5mC]*dT*dT*e[5mC]*e[5mC]*eA*eG*eG; antisense) [ISIS 474382] | 0 | 10 | 24 | 41 | 68 | 80 | 42 | 95 | 
6 | ISIS 474662: 5-10-5 MOE gapmer antisense oligonucleotide targeting murine TTC39C (antisense eG*eG*eA*eT*eT*dT*d[5mC]*d[5mC]*dG*dG*dG*d[5mC]*dA*dT*d[5mC]*eA*eA*e[5mC]*e[5mC]*eT) |  |  |  |  |  |  |  |  | % inhibition (murine TTC39C mRNA [3]): 95%; percent inhibition of TTC39C mRNA (murine TTC39C mRNA [4]; 500.0 nM): 28%; percent inhibition of TTC39C mRNA (murine TTC39C mRNA [4]; 1000.0 nM): 35%; percent inhibition of TTC39C mRNA (murine TTC39C mRNA [4]; 2000.0 nM): 65%; percent inhibition of TTC39C mRNA (murine TTC39C mRNA [4]; 4000.0 nM): 88%; percent inhibition of TTC39C mRNA (murine TTC39C mRNA [4]; 8000.0 nM): 94%; IC50 (murine TTC39C mRNA [4]): 1300 nM
7 | ISIS 474666: 5-10-5 MOE gapmer antisense oligonucleotide targeting murine TTC39C (antisense e[5mC]*eA*eA*eT*e[5mC]*dA*dT*dG*d[5mC]*dT*dG*d[5mC]*dA*d[5mC]*d[5mC]*eA*eG*e[5mC]*e[5mC]*eT) |  |  |  |  |  |  |  |  | % inhibition (murine TTC39C mRNA [3]): 95%; percent inhibition of TTC39C mRNA (murine TTC39C mRNA [4]; 500.0 nM): 35%; percent inhibition of TTC39C mRNA (murine TTC39C mRNA [4]; 1000.0 nM): 54%; percent inhibition of TTC39C mRNA (murine TTC39C mRNA [4]; 2000.0 nM): 79%; percent inhibition of TTC39C mRNA (murine TTC39C mRNA [4]; 4000.0 nM): 92%; percent inhibition of TTC39C mRNA (murine TTC39C mRNA [4]; 8000.0 nM): 95%; IC50 (murine TTC39C mRNA [4]): 800 nM
8 | TGTCAGTGACAGTGGCAGCT (antisense eT*eG*eT*e[5mC]*eA*dG*dT*dG*dA*d[5mC]*dA*dG*dT*dG*dG*e[5mC]*eA*eG*e[5mC]*eT) [ISIS 447159] |  |  |  |  |  |  |  |  | % inhibition of murine TTC39B mRNA (murine TTC39B mRNA [5]): 71%; percent inhibition of TTC39B mRNA (murine TTC39B mRNA [6]; 25 nM): 41%; percent inhibition of TTC39B mRNA (murine TTC39B mRNA [6]; 50 nM): 60%; percent inhibition of TTC39B mRNA (murine TTC39B mRNA [6]; 100 nM): 76%; percent inhibition of TTC39B mRNA (murine TTC39B mRNA [6]; 200 nM): 85%; percent inhibition of TTC39B mRNA (murine TTC39B mRNA [7]; 6.25 nM): 12%; percent inhibition of TTC39B mRNA (murine TTC39B mRNA [7]; 12.5 nM): 19%; percent inhibition of TTC39B mRNA (murine TTC39B mRNA [7]; 25.0 nM): 37%; percent inhibition of TTC39B mRNA (murine TTC39B mRNA [7]; 50.0 nM): 62%; percent inhibition of TTC39B mRNA (murine TTC39B mRNA [7]; 100.0 nM): 78%; percent inhibition of TTC39B mRNA (murine TTC39B mRNA [7]; 200.0 nM): 86%
